27 molecules from patent publication US8183238B2, “Bicyclic and tricyclic compounds as KAT II inhibitors” (priority 2009, dated 2012) can be followed below.

For this experiment, the target named is human KAT II (hKAT II) enzyme (Homo sapiens, UniProt Q8N5Z0). Description: KAT II Inhibition Spectra Assay. Type of experiment: biochemical. The note with it: Table 5; hKAT II, decrease in OD370, 37° C., 15-20 h; read-out: KATII IC50. The protocol:
Formation of kynurenic acid (KYNA) is indirectly assessed by a decrease in light absorbance at 370 nm (OD370) as the L-kynurenine (KYN) substrate is converted by the human KAT II (hKAT II) enzyme into KYNA. An inhibitor would therefore inhibit the decrease in OD370.
The protocol was performed by placing the following reagents into a Costar 384 well black plate (30 μL total assay volume/well): • 10 μL of 3× concentrated compound; • 10 μL of 3× concentrated substrate mix (BGG (Sigma G-5009); 3 mM L-Kynurenine in 150 mM Tris Acetate (Sigma K3750); 3 mM α-ketoglutaric acid in 150 mM Tris Acetate (Sigma K2010); and 210 μM pyridoxal 5-phosphate (PLP) in 150 mM Tris Acetate (Sigma 9255)); and • 10 μL of 3× concentrated enzyme (15 nM enzyme in 150 mM Tris Acetate with 0.3% bovine serum).
Plates were sealed and incubated at 37° C. for 15-20 h before reading OD370 on a SpectraMax Plus plate reader. IC50s were generated by comparing the efficacy of compounds across a concentration range to inhibit a reduction in the OD370 value relative to assay wells with DMSO added in place of concentrated compound.

Structures can show the parent of a compound that is named as a salt.

Sequence of human KAT II (hKAT II) enzyme (Q8N5Z0 30-425): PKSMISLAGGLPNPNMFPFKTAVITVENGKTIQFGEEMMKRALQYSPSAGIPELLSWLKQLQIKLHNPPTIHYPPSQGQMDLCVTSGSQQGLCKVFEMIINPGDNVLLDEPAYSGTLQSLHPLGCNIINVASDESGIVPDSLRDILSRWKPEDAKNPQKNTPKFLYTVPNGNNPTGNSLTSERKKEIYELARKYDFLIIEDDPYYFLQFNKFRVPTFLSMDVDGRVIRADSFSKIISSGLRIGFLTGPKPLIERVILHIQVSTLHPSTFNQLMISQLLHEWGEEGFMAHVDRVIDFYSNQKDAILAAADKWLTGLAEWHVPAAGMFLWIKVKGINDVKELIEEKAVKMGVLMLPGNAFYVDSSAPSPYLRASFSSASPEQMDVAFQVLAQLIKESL

In the case of `NC1Cc2cccnc2N(O)C1=O` (stereo not drawn) [Example 1, 3-amino-1-hydroxy-3,4-dihydro-1,8-naphthyridin-2(1H)-one, trifluoroacetate salt], the IC50 was 52.7 nM.

As to `NC1Cc2cc(F)ccc2N(O)C1=O` (stereo not drawn) [Example 2, 3-amino-6-fluoro-1-hydroxy-3,4-dihydroquinolin-2(1H)-one, hydrochloride salt], the concentration for half-maximal inhibition (IC50) was 23.4 nM. For `NC1Cc2cccc(C(F)(F)F)c2N(O)C1=O` (stereo not drawn) [Example 3, 3-amino-1-hydroxy-8-(trifluoromethyl)-3,4-dihydroquinolin-2(1H)-one] the value was 204 nM; for `N[C@@H]1Cc2ccc(Br)cc2N(O)C1=O` [Example 5, (3R)-3-amino-7-bromo-1-hydroxy-3,4-dihydroquinolin-2(1H)-one], 131 nM; for `N[C@H]1Cc2ccc(Br)cc2N(O)C1=O` [Example 6, (3S)-3-amino-7-bromo-1-hydroxy-3,4-dihydroquinolin-2(1H)-one], 25.4 nM. In the case of `C[C@H]1c2ccccc2N(O)C(=O)[C@H]1N` [Example 7, (3S,4S)-3-amino-1-hydroxy-4-methyl-3,4-dihydroquinolin-2(1H)-one, hydrochloride salt] it was 3280 nM; in that of `Cc1cc(Cl)cc2c1N(O)C(=O)C(N)C2` (stereo not drawn) [Example 8, 3-amino-6-chloro-1-hydroxy-8-methyl-3,4-dihydroquinolin-2(1H)-one], 608 nM. In the case of `NC1Cc2ncccc2N(O)C1=O` (stereo not drawn) [Example 9, 3-amino-1-hydroxy-3,4-dihydro-1,5-naphthyridin-2(1H)-one, dihydrochloride salt] it was 2230 nM; in that of `NC1Cc2cc(C(F)(F)F)ccc2N(O)C1=O` (stereo not drawn) [Example 10, 3-amino-1-hydroxy-6-(trifluoromethyl)-3,4-dihydroquinolin-2(1H)-one, hydrochloride salt], 73.7 nM; in that of `NC1Cc2c(ccc3ccccc23)N(O)C1=O` (stereo not drawn) [Example 11, 2-amino-4-hydroxy-1,2-dihydrobenzo[f]quinolin-3(4H)-one], 121 nM. With `COc1cccc2c1C[C@H](N)C(=O)N2O` [Example 12, (3S)-3-amino-1-hydroxy-5-methoxy-3,4-dihydroquinolin-2(1H)-one, hydrochloride salt], the IC50 is 379 nM.

As to `COc1cccc(-c2ccc3c(c2)N(O)C(=O)C(N)C3)c1` (stereo not drawn) [Example 13, 3-amino-1-hydroxy-7-(3-methoxyphenyl)-3,4-dihydroquinolin-2(1H)-one, hydrochloride salt], the IC50 came out at 57.3 nM.

As to `N[C@@H]1Cc2ccccc2N(O)C1=O` [Example 14], the IC50 was determined as 270 nM. In the case of `NC1Cc2ccc(Cl)cc2N(O)C1=O` (stereo not drawn) [Example 15] it was 11.1 nM. For `NC1Cc2cc(Cl)ccc2N(O)C1=O` (stereo not drawn) [Example 16] the value was 22.7 nM; for `Cc1ccc2c(c1)N(O)C(=O)C(N)C2` (stereo not drawn) [Example 17], 95.1 nM; for `Cc1ccc2c(c1)CC(N)C(=O)N2O` (stereo not drawn) [Example 18], 139 nM.

For `Cc1cccc2c1N(O)C(=O)C(N)C2` (stereo not drawn) [Example 19], the IC50 worked out at 3040 nM. In the case of `N[C@H]1Cc2cccc(C(F)(F)F)c2N(O)C1=O` [Example 20] it was 127 nM; in that of `NC1Cc2cc(C3CC3)ccc2N(O)C1=O` (stereo not drawn) [Example 21], 46.2 nM.

With `N[C@H]1Cc2c(Cl)cccc2N(O)C1=O` [Example 22], the IC50 came to 45.2 nM. For `NC1Cc2cc(Cl)cc(C(F)(F)F)c2N(O)C1=O` (stereo not drawn) [Example 23] the value was 65.3 nM. In the case of `N[C@H]1Cc2cc(Br)cc(C(F)(F)F)c2N(O)C1=O` [Example 24] it was 50 nM; in that of `CC(C)Oc1ccc2c(c1)N(O)C(=O)[C@@H](N)C2` [Example 25], 48.4 nM; in that of `CCc1ccc2c(c1)N(O)C(=O)C(N)C2` (stereo not drawn) [Example 26], 88 nM. For `N[C@H]1Cc2c(F)cccc2N(O)C1=O` [Example 27] the value was 51.9 nM; for `N[C@H]1Cc2cc(-c3ccc(C(F)(F)F)cc3)cc(C(F)(F)F)c2N(O)C1=O` [Example 28], 1330 nM.

The IC50 is the point on the concentration scale where inhibition reaches its midpoint.
